Tested on: Brassica plants comprising mutant AHAS alleles
Test: Field trial, pre-planting treatment (0, 10, 20, 30 g a.i./ha), two locations in Canada: ERG, EST1, EST2, PPTOX, VIG1, VIG2, VIG3 scores
Assay type: in vivo, Brassica napus
Text: Tests were set up and conducted to asses the growth and performance of plants comprising AHAS full knock-out alleles, and to further analyze the correlation between the presence of full knockout and missense AHAS genes in Brassica plants and plant growth and herbicide tolerance of the Brassica plants in the field. To this end, the Brassica plants identified in Example 1 and 2 were backcrossed two times with an elite parent line, and subsequently selfed twice to obtain homozygous plants (BC2S2). Plants were grown as row plots in a split plot design with three replicates (main plots=herbicide treatments, subplots=genotypes) at two locations in Canada. Treatment pre-planting was carried out on the soil about two days before sowing with a dose of 0 (treatment A), 10 (treatment B), 20 (treatment C) or 30 (treatment D) g a.i./ha of thiencarbazone methyl. Herbicide tolerance was measured by scoring for different parameters. The parameter emergence (ERG) was scored at the cotyledon stage on a scale 1-9, where 1 means late emergence and 9 means early emergence. Establishment was scored 14 days after sowing (EST1) and 21 days after sowing (EST2). Scores were from 1 to 9, where 1 is the worst establishment (least plants that emerged), and 9 is the best establishment (most plants emerged). Phytotoxicity (PPTOX) was determined after establishment. Plants were evaluated on a scale of 1 to 9, where 1=completely yellowing, 5=50% of plant is yellow and 9=no yellowing. The vigor scores (see above) were determined at 1-2 leaf stage (VIG1), 7 days after VIG1 (VIG2) and 14 days after VIG1 (VIG3). The average values (Av) and standard deviations (SD) of the scores for the different parameters are represented in Table 7a-g.
Further, the contribution of the knock-out allele to herbicide tolerance conferred by the missense allele was calculated. First, the scores were corrected for a possible effect of the growth per se, independent of herbicide treatment. To this end, the scores for treatments B, C and D were divided by the scores for treatment A for the same genotype and for the same parameter (corrected herbicide tolerance scores). Next, the effect of the knock-out allele to these corrected herbicide tolerance scores obtained by the missense allele was calculated. Therefore, the corrected herbicide tolerance scores for the missense—knock-out allele combination was divided by the corrected herbicide tolerance scores for the missense allele—wild-type combination. In case the knock-out allele has no effect on herbicide tolerance conferred by the missense allele, this ratio should be 1. In case the knock-out allele positively contributes to the herbicide tolerance conferred by the missense allele, this ratio should be higher than 1. The results for the contribution of the knock-out allele to herbicide tolerance conferred by the missense allele as calculated above are shown in table 8.

[1] = AHAS1 HETO112, AHAS3 WT, treatment C 20 g a.i./ha pre-planting, Location A
[2] = AHAS1 HETO112, AHAS3 WT, treatment C 20 g a.i./ha pre-planting, Location B
[3] = AHAS1 HETO112, AHAS3 WT, treatment D 30 g a.i./ha pre-planting, Location A
[4] = AHAS1 HETO112, AHAS3 WT, treatment D 30 g a.i./ha pre-planting, Location B
[5] = AHAS1 HETO112/AHAS3 HETO111, 10 g a.i./ha pre-planting (B), Location A
[6] = AHAS1 HETO112/AHAS3 HETO111, 10 g a.i./ha pre-planting (B), Location B
[7] = AHAS1 HETO112/AHAS3 HETO111, 20 g a.i./ha pre-planting (C), Location A
[8] = AHAS1 HETO112/AHAS3 HETO111, 20 g a.i./ha pre-planting (C), Location B
[9] = AHAS1 HETO112/AHAS3 HETO111, 30 g a.i./ha pre-planting (D), Location A
[10] = AHAS1 HETO112/AHAS3 HETO111, 30 g a.i./ha pre-planting (D), Location B
[11] = AHAS1 HETO112/AHAS3 WT, 10 g a.i./ha pre-planting (B), Location A
[12] = AHAS1 HETO112/AHAS3 WT, 10 g a.i./ha pre-planting (B), Location B
[13] = AHAS1 HETO112/AHAS3 WT, 20 g a.i./ha pre-planting (C), Location A
[14] = AHAS1 HETO112/AHAS3 WT, 20 g a.i./ha pre-planting (C), Location B
[15] = AHAS1 HETO112/AHAS3 WT, 30 g a.i./ha pre-planting (D), Location A
[16] = AHAS1 HETO112/AHAS3 WT, 30 g a.i./ha pre-planting (D), Location B
[17] = AHAS1 WT, AHAS3 HETO104, treatment B 10 g a.i./ha pre-planting, Location A
[18] = AHAS1 WT, AHAS3 HETO104, treatment B 10 g a.i./ha pre-planting, Location B
[19] = AHAS1 WT, AHAS3 HETO104, treatment C 20 g a.i./ha pre-planting, Location A
[20] = AHAS1 WT, AHAS3 HETO104, treatment C 20 g a.i./ha pre-planting, Location B
[21] = AHAS1 WT, AHAS3 HETO104, treatment D 30 g a.i./ha pre-planting, Location A
[22] = AHAS1 WT, AHAS3 HETO104, treatment D 30 g a.i./ha pre-planting, Location B

COC(=O)c1csc(C)c1S(=O)(=O)NC(=O)n1nc(OC)n(C)c1=O [thiencarbazone-methyl, methyl 4-[(4,5-dihydro-3-methoxy-4-methyl-5-oxo-1H-1,2,4-triazol-1-yl)carbonylsulfamoyl]-5-methylthiophene-3-carboxylate]
2.00: emergence (ERG) score Av [17] | emergence (ERG) score Av [18]
2.67: establishment (EST2) score, Av [12]
3.67: establishment (EST2) score, Av [10]
6.33: vigor1 (VIG1) score, Av [5] | vigor2 (VIG2) score, Av [7]
5.33: establishment (EST2) score, Av [7] | vigor2 (VIG2) score, Av [8] | vigor2 (VIG2) score, Av [10] | emergence (ERG) score Av (AHAS1 WT, AHAS3 HETO111 (HETO108+HETO111 series), treatment B 10 g a.i./ha pre-planting, Location A)
7.33: vigor2 (VIG2) score, Av [5]
5.00: establishment (EST2) score, Av [8]
4.00: vigor1 (VIG1) score, Av [10]
1.00: emergence (ERG) score Av [1] | establishment (EST1) score Av, 14 days after sowing [1] | emergence (ERG) score Av [2] | emergence (ERG) score Av [3] | establishment (EST1) score Av, 14 days after sowing [3] | emergence (ERG) score Av [4] | establishment (EST1) score Av, 14 days after sowing [4] | phytotoxicity (PPTOX) score, Av [11] | vigor1 (VIG1) score, Av [11] | vigor2 (VIG2) score, Av [11] | phytotoxicity (PPTOX) score, Av [12] | vigor2 (VIG2) score, Av [12] | establishment (EST2) score, Av [13] | phytotoxicity (PPTOX) score, Av [13] | vigor1 (VIG1) score, Av [13] | vigor2 (VIG2) score, Av [13] | phytotoxicity (PPTOX) score, Av [14] | vigor1 (VIG1) score, Av [14] | vigor2 (VIG2) score, Av [14] | establishment (EST2) score, Av [15] | phytotoxicity (PPTOX) score, Av [15] | vigor1 (VIG1) score, Av [15] | vigor2 (VIG2) score, Av [15] | establishment (EST2) score, Av [16] | phytotoxicity (PPTOX) score, Av [16] | vigor1 (VIG1) score, Av [16] | vigor2 (VIG2) score, Av [16] | emergence (ERG) score Av [19] | establishment (EST1) score Av, 14 days after sowing [19] | emergence (ERG) score Av [21] | establishment (EST1) score Av, 14 days after sowing [21] | emergence (ERG) score Av [22] | establishment (EST1) score Av, 14 days after sowing [22]
3.33: establishment (EST1) score Av, 14 days after sowing [18]
5.67: establishment (EST2) score, Av [5] | establishment (EST2) score, Av [6] | establishment (EST2) score, Av [9]
1.67: establishment (EST2) score, Av [11] | establishment (EST2) score, Av [14]
2.33: establishment (EST1) score Av, 14 days after sowing (AHAS1 HETO112, AHAS3 WT, treatment B 10 g a.i./ha pre-planting, Location B) | establishment (EST1) score Av, 14 days after sowing [17] | establishment (EST1) score Av, 14 days after sowing [20]
1.33: establishment (EST1) score Av, 14 days after sowing [2] | vigor1 (VIG1) score, Av [12] | emergence (ERG) score Av [20]
6.67: vigor2 (VIG2) score, Av [6] | vigor2 (VIG2) score, Av [9]
